Test results taken from patent publication US20230017045A1, “PYRIDINE AND PYRIMIDINE CARBOXYLATE HERBICIDES AND METHODS OF USE THEREOF” (Dow AgroSciences LLC, priority 2017, published 2023).

Test system: test plant species
Experiment: Post-emergent herbicidal activity test (greenhouse, foliar spray, visual growth reduction)
Assay type: in vivo
Conditions: post-emergence, 336 h, ECHCG: barnyardgrass (Echinochloa crus-galli), 140 g ai/ha, 14 days after application, read-out: Visual Growth Reduction (%) 14 Days After Application, ECHCG
Procedure, shortened: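 Greenhouse plants at first–second true leaf stage sprayed overhead at 187 L/ha with compound in acetone/water/isopropanol/DMSO/crop oil/X-77 carrier; controls received solvent blank. Injury rated visually after 14 d on a 0–100% scale versus untreated and control plants, converted to growth reduction.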

SMILES	pest or weed control at 140 g/ha [%]
O=C(O)c1nc(-c2cccc3c2OC(F)(F)O3)ccc1Cl [F255, 3-Chloro-6-(2,2-difluorobenzo[d][1,3]dioxol-4-yl)picolinic acid]	0 to 29

Same assay, conditions: post-emergence, 336 h, IPOHE: ivy-leaf morning glory (Ipomoea hederacea), 140 g ai/ha, 14 days after application, read-out: Visual Growth Reduction (%) 14 Days After Application, IPOHE

SMILES	pest or weed control at 140 g/ha [%]
O=C(O)c1nc(-c2cccc3c2OC(F)(F)O3)ccc1Cl [F255, 3-Chloro-6-(2,2-difluorobenzo[d][1,3]dioxol-4-yl)picolinic acid]	0 to 29

Same assay, conditions: post-emergence, 336 h, KCHSC: kochia (Bassia scoparia), 140 g ai/ha, 14 days after application, read-out: Visual Growth Reduction (%) 14 Days After Application, KCHSC

SMILES	pest or weed control at 140 g/ha [%]
O=C(O)c1nc(-c2cccc3c2OC(F)(F)O3)ccc1Cl [F255, 3-Chloro-6-(2,2-difluorobenzo[d][1,3]dioxol-4-yl)picolinic acid]	0 to 29

Same assay, conditions: post-emergence, 336 h, ORYSA: rice (Oryza sativa), 140 g ai/ha, 14 days after application, read-out: Visual Growth Reduction (%) 14 Days After Application, ORYSA

SMILES	pest or weed control at 140 g/ha [%]
O=C(O)c1nc(-c2cccc3c2OC(F)(F)O3)ccc1Cl [F255, 3-Chloro-6-(2,2-difluorobenzo[d][1,3]dioxol-4-yl)picolinic acid]	0 to 29

Same assay, conditions: post-emergence, 336 h, SETFA: giant foxtail (Setaria faberi), 140 g ai/ha, 14 days after application, read-out: Visual Growth Reduction (%) 14 Days After Application, SETFA

SMILES	pest or weed control at 140 g/ha [%]
O=C(O)c1nc(-c2cccc3c2OC(F)(F)O3)ccc1Cl [F255, 3-Chloro-6-(2,2-difluorobenzo[d][1,3]dioxol-4-yl)picolinic acid]	0 to 29

Same assay, conditions: post-emergence, 336 h, SORVU: grain sorghum (Sorghum vulgare), 140 g ai/ha, 14 days after application, read-out: Visual Growth Reduction (%) 14 Days After Application, SORVU

SMILES	pest or weed control at 140 g/ha [%]
O=C(O)c1nc(-c2cccc3c2OC(F)(F)O3)ccc1Cl [F255, 3-Chloro-6-(2,2-difluorobenzo[d][1,3]dioxol-4-yl)picolinic acid]	0 to 29

Same assay, conditions: post-emergence, 336 h, STEME: common chickweed (Stellaria media), 140 g ai/ha, 14 days after application, read-out: Visual Growth Reduction (%) 14 Days After Application, STEME

SMILES	pest or weed control at 140 g/ha [%]
O=C(O)c1nc(-c2cccc3c2OC(F)(F)O3)ccc1Cl [F255, 3-Chloro-6-(2,2-difluorobenzo[d][1,3]dioxol-4-yl)picolinic acid]	0 to 29

Same assay, conditions: post-emergence, 336 h, TRZAS: wheat, spring (Triticum aestivum), 140 g ai/ha, 14 days after application, read-out: Visual Growth Reduction (%) 14 Days After Application, TRZAS

SMILES	pest or weed control at 140 g/ha [%]
O=C(O)c1nc(-c2cccc3c2OC(F)(F)O3)ccc1Cl [F255, 3-Chloro-6-(2,2-difluorobenzo[d][1,3]dioxol-4-yl)picolinic acid]	0 to 29

Same assay, conditions: post-emergence, 336 h, blackgrass (Alopecurus myosuroides), 14 Days After Application, 140 g ai/ha, read-out: Visual Growth Reduction (%) ALOMY

SMILES	pest or weed control at 140 g/ha [%]
O=C(O)c1nc(-c2cccc3c2OC(F)(F)O3)ccc1Cl [F255, 3-Chloro-6-(2,2-difluorobenzo[d][1,3]dioxol-4-yl)picolinic acid]	0 to 29

Same assay, conditions: post-emergence, 336 h, canada thistle (Cirsium arvense), 14 Days After Application, 140 g ai/ha, read-out: Visual Growth Reduction (%) CIRAR

SMILES	pest or weed control at 140 g/ha [%]
O=C(O)c1nc(-c2cccc3c2OC(F)(F)O3)ccc1Cl [F255, 3-Chloro-6-(2,2-difluorobenzo[d][1,3]dioxol-4-yl)picolinic acid]	0 to 29

Same assay, conditions: post-emergence, 336 h, crabgrass (Digitaria sanguinalis), 14 Days After Application, 140 g ai/ha, read-out: Visual Growth Reduction (%) DIGSA

SMILES	pest or weed control at 140 g/ha [%]
O=C(O)c1nc(-c2cccc3c2OC(F)(F)O3)ccc1Cl [F255, 3-Chloro-6-(2,2-difluorobenzo[d][1,3]dioxol-4-yl)picolinic acid]	0 to 29

Same assay, conditions: post-emergence, 336 h, lambsquarters (Chenopodium album), 14 Days After Application, 140 g ai/ha, read-out: Visual Growth Reduction (%) CHEAL

SMILES	pest or weed control at 140 g/ha [%]
O=C(O)c1nc(-c2cccc3c2OC(F)(F)O3)ccc1Cl [F255, 3-Chloro-6-(2,2-difluorobenzo[d][1,3]dioxol-4-yl)picolinic acid]	0 to 29

Same assay, conditions: post-emergence, 336 h, redroot pigweed (Amaranthus retroflexus), 14 Days After Application, 140 g ai/ha, read-out: Visual Growth Reduction (%) AMARE

SMILES	pest or weed control at 140 g/ha [%]
O=C(O)c1nc(-c2cccc3c2OC(F)(F)O3)ccc1Cl [F255, 3-Chloro-6-(2,2-difluorobenzo[d][1,3]dioxol-4-yl)picolinic acid]	0 to 29

Same assay, conditions: post-emergence, 336 h, wild oat (Avena fatua), 14 Days After Application, 140 g ai/ha, read-out: Visual Growth Reduction (%) AVEFA

SMILES	pest or weed control at 140 g/ha [%]
O=C(O)c1nc(-c2cccc3c2OC(F)(F)O3)ccc1Cl [F255, 3-Chloro-6-(2,2-difluorobenzo[d][1,3]dioxol-4-yl)picolinic acid]	0 to 29

Same assay, conditions: post-emergence, 336 h, yellow nutsedge (Cyperus esculentus), 14 Days After Application, 140 g ai/ha, read-out: Visual Growth Reduction (%) CYPES

SMILES	pest or weed control at 140 g/ha [%]
O=C(O)c1nc(-c2cccc3c2OC(F)(F)O3)ccc1Cl [F255, 3-Chloro-6-(2,2-difluorobenzo[d][1,3]dioxol-4-yl)picolinic acid]	0 to 29
